{"source": "patent US10494404B2", "about": "“Quinolinium conjugates of cyclosporin” (priority 2014, dated 2019)", "key": {"[1]": {"test_system": "Ca^2+ mediated PT pore formation", "test": "Calcium retention capacity (CRC) assay, isolated WT mouse liver mitochondria", "type": "biochemical", "description": "In order to assess the efficiency of compounds on Ca^2+ mediated PT pore formation we measured calcium retention capacity (CRC) of isolated mouse liver mitochondria. […] Energised mitochondria take up Ca^2+, resulting in a declining fluorescent signal following the Ca^2+ bolus induced peak. Mitochondria take up and buffer Ca^2+ up to a threshold when intramitochondrial [Ca^2+] reaches threshold to induce PT. […] The amount of Ca^2+ required to induce PT characterizes its Ca^2+ sensitivity and defines mitochondrial CRC. Inhibition of CypD, the Ca^2+ sensor of PT, thus leads to increased CRC.\nFurther experiments were carried out using the techniques discussed in Example 4.\n(§1) Subcellular fractionation was performed as previously described (Astin et al, 2013). […] At 4° C., the liver was rinsed in PBS to remove excess blood, and any fat and connective tissue was eliminated. PBS was then replaced with isolation buffer containing 1 mM PMSF, and the liver was chopped into pieces (approximately 2 mm in length). Tissue was then homogenized in this solution until no solid matter remained, and then centrifuged at 800G for 10 minutes at 4° C. The nuclear pellet was then discarded, and the post nuclear supernatant retained, and centrifuged at 10300G for another 10 minutes at 4° C. The postmitochondrial supernatant was discarded, and the mitochondrial pellet was resuspended in isolation buffer and PMSF, and kept on ice. Protein levels were quantified using a ThermoScientific BCA protein quantification assay, as per manufacturer's instructions.\nIsolated mitochondria were resuspended (500 μg protein/ml) in MSK buffer (75 mM mannitol, 25 mM sucrose, 5 mM potassium phosphate monobasic, 20 mM Tris-HCl, 100 mM KCl, and 0.1% bovine serum albumin, pH 7.4) supplemented with 10 mM succinate, 1 μM rotenone and 1 μM Fluo5N. 200 μl mitochondrial suspension per well was used in 96 well microplates. Compounds were incubated for ten minutes before the plate was assayed in a Fluostar Optima plate reader, using Ex/Em filters at 480/520 […]; CaCl2 was injected approximately every 6.5 minutes for 80 minutes (12 total injections, final concentration of 75 μM). To calculate % inhibition of Ca^2+ induced pore opening, first areas under each curve were calculated, and controls without CaCl2 addition were subtracted as background. The background corrected values were then expressed as the fraction of controls without mitochondria, representing the total amount of Ca^2+ added, unbuffered by mitochondria. Percentage inhibition for each [compound] was then calculated as the % of the corresponding value for the untreated condition. […] For experiments with CypD −/− mice, 100 ul mitochondrial suspension per well was used. CaCl2) was injected approximately every 6.5 minutes for 135 minutes (20 total injections, final concentration of 266 μM). Data were background corrected and expressed as the fraction of controls without mitochondria, and then normalised to the wild type no drug condition. Significance was assessed by one way ANOVA."}, "[2]": {"test_system": "Ca^2+ mediated PT pore formation (CypD KO mitochondria)", "test": "Calcium retention capacity (CRC) assay, liver mitochondria from CypD knockout mice", "type": "biochemical, mouse", "experimental": "as §1, with “The postmitochondrial supernatant was discarded, and the mitochondrial pellet was resuspended in isolation buffer and PMSF, and kept on ice.” left out\nIsolated mitochondria were resuspended (500 μg protein/ml) in MSK buffer (75 mM mannitol, 25 mM sucrose, 5 mM potassium phosphate monobasic, 20 mM Tris-HCl, 100 mM KCl, and 0.1% bovine serum albumin, pH 7.4) supplemented with 10 mM succinate, 1 μM rotenone and 1 μM Fluo5N. […] Compounds were incubated for ten minutes before the plate was assayed in a Fluostar Optima plate reader, using Ex/Em filters at 480/520 […]; CaCl2 was injected approximately every 6.5 minutes for 80 minutes (12 total injections, final concentration of 75 μM). […] Percentage inhibition for each [compound] was then calculated as the % of the corresponding value for the untreated condition. […]"}, "HepG2 cells": {"test_system": "HepG2 cells", "test": "HepG2 high content screening of cell health markers", "type": "cell-based", "conditions": "HepG2, 72 h exposure", "experimental": "HepG2 cells were plated on 96-well tissue culture treated black walled clear bottomed polystyrene plates, 100 μL, (3000 cells) per well. After 24 hours the cells were dosed with the test compounds at a range of concentrations. At the end of the incubation period, the cells were loaded with the relevant dye/antibody for each cell health markers set out below. The plates were then scanned using an automated fluorescent cellular imager [ArrayScan VTI (Thermo Scientific Cellomics)].\nThe following cell health markers were measured: • a. Cell count—a decreasing number of cells per well indicates toxicity due to necrosis, apoptosis or a reduction in cellular proliferation. • b. Nuclear area—an increase in nuclear size indicates necrosis or G2 cell cycle arrest and a decrease indicates apoptosis. • c. DNA structure—an increase in DNA structure indicates chromosomal instability and DNA fragmentation. • d. […]\nHepG2 cells were seeded in black, clear-bottom 96-well tissue culture plates at a density of 3000 cells per well. […] Cell count, nuclear size and DNA structure were also measured Hoechst 33342 (Life Technologies). Following staining of the HepG2 cells fluorescence was analyzed by image acquisition with a Thermo Fisher Cellomics® ArrayScanVTI High Content Screening Reader (ThermoFisher Scientific Inc., Waltham, Mass.) and vHCS™ view software (ThermoFisher Scientific Inc.). […]"}}}
{"compound": "CC[C@@H]1NC(=O)[C@H]([C@H](O)[C@H](C)C/C=C/CCC[n+]2cccc3ccccc32)N(C)C(=O)[C@H](C(C)C)N(C)C(=O)[C@H](CC(C)C)N(C)C(=O)[C@H](CC(C)C)N(C)C(=O)[C@@H](C)NC(=O)[C@H](C)NC(=O)[C@H](CC(C)C)N(C)C(=O)[C@H](C(C)C)NC(=O)[C@H](CC(C)C)N(C)C(=O)CN(C)C1=O", "note": "[Compound 1, [Gly-(1S,2R,E)-8-quinolinium-1-hydroxy-2-methyloct-4-ene]^1 CsA]", "values": [{"measurement": "inhibition of Ca2+ mediated PT pore formation", "setting": "[1]; 8 nM", "result": "[…]"}, {"measurement": "inhibition of Ca2+-induced PT (increased CRC), potency compared to CsA and SmBzCsA", "setting": "[1]; isolated mouse liver mitochondria", "result": "[…]"}, {"measurement": "IC50", "setting": "[1]; isolated mouse liver mitochondria, read-out: half-maximal inhibition in the CRC assay", "result": "[…]"}, {"measurement": "effect on CRC", "setting": "[1]; mitochondria from WT mice", "result": "[…]"}, {"measurement": "effect on CRC", "setting": "[2]", "result": "Neither CsA nor Compound 1 had any effect"}, {"measurement": "toxicity (cell health markers) compared with unmodified CsA", "setting": "HepG2 cells", "result": "significantly reduced the toxicity of cyclosporin"}]}
